According to patent US7700624B2, “3-aminocyclopentanecrboxamides as modulators of chemokine receptors” (Incyte Corporation, priority 2005, dated 2010):

Target: T1, CCR2 (Homo sapiens, UniProt P41597)
T1 construct: Peripheral Blood Mononuclear Cells (PBMCs) prepared from normal human whole blood via density gradient centrifugation; endogenous in cells; host or cells: human PBMCs from normal whole blood
T1 sequence (P41597 1-360 isoform P41597-2): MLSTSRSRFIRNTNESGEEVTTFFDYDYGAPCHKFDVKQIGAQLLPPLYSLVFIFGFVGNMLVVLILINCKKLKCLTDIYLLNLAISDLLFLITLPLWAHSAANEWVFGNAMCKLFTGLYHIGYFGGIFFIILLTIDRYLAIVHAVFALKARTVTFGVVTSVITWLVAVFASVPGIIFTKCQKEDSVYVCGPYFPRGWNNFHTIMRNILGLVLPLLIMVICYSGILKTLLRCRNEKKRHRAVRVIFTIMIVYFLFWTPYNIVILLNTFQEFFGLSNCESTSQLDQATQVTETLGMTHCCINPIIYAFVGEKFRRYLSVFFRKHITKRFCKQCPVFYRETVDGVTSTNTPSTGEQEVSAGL
Test: CCR2 binding assay: 125I-labeled MCP-1 binding to human PBMCs
Settings: inhibition of specific binding of 0.1 to 0.2 nM 125I-labeled MCP-1 to human PBMCs, 30 min at room temperature
Source text: The CCR2 antagonist activity of compounds of the invention can be reported as the inhibitor concentration required for 50% inhibition (IC50 values) of specific binding in receptor binding assays using ^125I-labeled MCP-1, as ligand, and Peripheral Blood Mononuclear Cells (PBMCs) prepared from normal human whole blood via density gradient centrifugation. Specific binding is preferably defined as the total binding (e.g., total cpm on filters) minus the non-specific binding. Non-specific binding is defined as the amount of cpm still detected in the presence of excess unlabeled competitor (e.g., MCP-1).
Human PBMCs are used to test compounds of the invention in a binding assay. For example, 200,000 to 500,000 cells are incubated with 0.1 to 0.2 nM ^125I-labeled MCP-1, with or without unlabeled competitor (10 nM MCP-1) or various concentrations of compounds to be tested. ^125I-labeled MCP-1, are prepared by suitable methods or purchased from commercial vendors (Perkin Elmer, Boston Mass.). The binding reactions are performed in 50 to 250 μL of a binding buffer consisting of […] pH 7.2, and 0.1% BSA (bovine serum albumin), for 30 min at room temperature. The binding reactions are terminated by harvesting the membranes by rapid filtration through glass fiber filters (Perkin Elmer) which is presoaked in 0.3% polyethyleneimine or Phosphate Buffered Saline (PBS). The filters were rinsed with approximately 600 μL of binding buffer containing 0.5 M NaCl or PBS, then dried, and the amount of bound radioactivity is determined by counting on a Gamma Counter (Perkin Elmer).

SMILES	IC50 [nM]
CCn1cc(CN[C@@H]2CC[C@@](C(=O)N3CCN(c4cc(C(F)(F)F)ccn4)CC3)(C(C)C)C2)cn1 [Example 7, (1R,3S)-N-[(1-ethyl-1H-pyrazol-4-yl)methyl]-3-isopropyl-3-({4-[4-(trifluoromethyl)pyridin-2-yl]piperazin-1-yl}carbonyl)cyclopentanamine]	617
CC(C)[C@]1(C(=O)N2CCN(c3cc(C(F)(F)F)ccn3)CC2)CC[C@@H](NC2CCCN(c3ncccn3)C2)C1 (mixture of isomers) [Example 11, N-[(1R,3S)-3-isopropyl-3-({4-[4-(trifluoromethyl)pyridin-2-yl]piperazin-1-yl}carbonyl)cyclopentyl]-1-pyrimidin-2-ylpiperidin-3-amine]	420
CC#CCN1CCC(N[C@@H]2CC[C@@](C(=O)N3CCN(c4cc(C(F)(F)F)ccn4)CC3)(C(C)C)C2)CCC1=O (mixture of isomers) [Example 12, 1-but-2-yn-1-yl-5-{[(1R,3S)-3-isopropyl-3-({4-[4-(trifluoromethyl)pyridin-2-yl]piperazin-1-yl}carbonyl)cyclopentyl]amino}azepan-2-one]	660
CC(C)[C@]1(C(=O)N2CCN(c3cc(C(F)(F)F)ccn3)CC2)CC[C@@H](NC2CCc3cc(F)cc(F)c3C2)C1 (mixture of isomers) [Example 18, 6,8-difluoro-N-[(1R,3S)-3-isopropyl-3-({4-[4-(trifluoromethyl)pyridin-2-yl]piperazin-1-yl}carbonyl)cyclopentyl]-1234-tetrahydronaphthalen-2-amine]	51.7
CC(C)[C@]1(C(=O)N2CCN(c3cc(C(F)(F)F)ccn3)CC2)CC[C@@H](NCc2ccc(Cl)s2)C1 [Example 5, (1R,3S)-N-[(5-chloro-2-thienyl)methyl]-3-isopropyl-3-({4-[4-(trifluoromethyl)pyridin-2-yl]piperazin-1-yl}carbonyl)cyclopentanamine]	616
COc1ccc(CN[C@@H]2CC[C@@](C(=O)N3CCN(c4cc(C(F)(F)F)ccn4)CC3)(C(C)C)C2)cc1O [Example 29, 5-({[(1R,3S)-3-isopropyl-3-({4-[4-(trifluoromethyl)pyridin-2-yl]piperazin-1-yl}carbonyl)cyclopentyl]amino}methyl)-2-methoxyphenol]	736
CC(C)[C@]1(C(=O)N2CCN(c3cc(C(F)(F)F)ccn3)CC2)CC[C@@H](NC2Cc3ccccc3C2)C1 [Example 14, N-[(1R,3S)-3-isopropyl-3-({4-[4-(trifluoromethyl)pyridin-2-yl]piperazin-1-yl}carbonyl)cyclopentyl]indan-2-amine]	74.8
CC(C)NC(=O)CCC1CCCC1N[C@@H]1CC[C@@](C(=O)N2CCN(c3cc(C(F)(F)F)ccn3)CC2)(C(C)C)C1 (stereo partly drawn) [Example 13, N-isopropyl-3-(2-{[(1R,3S)-3-isopropyl-3-({4-[4-(trifluoromethyl)pyridin-2-yl]piperazin-1-yl}carbonyl)cyclopentyl]amino}cyclopentyl)propanamide]	273
COc1cc(CN[C@@H]2CC[C@@](C(=O)N3CCN(c4cc(C(F)(F)F)ccn4)CC3)(C(C)C)C2)ccc1C [Example 31, (1R,3S)-3-isopropyl-N-(3-methoxy-4-methylbenzyl)-3-({4-[4-(trifluoromethyl)pyridin-2-yl]piperazin-1-yl}carbonyl)cyclopentanamine]	334
CC(C)[C@]1(C(=O)N2CCN(c3cc(C(F)(F)F)ccn3)CC2)CC[C@@H](NCc2ccc3[nH]ccc3c2)C1 [Example 26, (1R,3S)-N-(1H-indol-5-ylmethyl)-3-isopropyl-3-({4-[4-(trifluoromethyl)pyridin-2-yl]piperazin-1-yl}carbonyl)cyclopentanamine]	273
CC(CCn1cccn1)N[C@@H]1CC[C@@](C(=O)N2CCN(c3cc(C(F)(F)F)ccn3)CC2)(C(C)C)C1 (mixture of isomers) [Example 22, (1R,3S)-3-isopropyl-N-[1-methyl-3-(1H-pyrazol-1-yl)propyl]-3-({4-[4-(trifluoromethyl)pyridin-2-yl]piperazin-1-yl}carbonyl)cyclopentanamine]	504
CC(C)[C@]1(C(=O)N2CCN(c3cc(C(F)(F)F)ccn3)CC2)CC[C@@H](NCc2ccc(F)cc2)C1 [Example 28, (1R,3S)-N-(4-fluorobenzyl)-3-isopropyl-3-({4-[4-(trifluoromethyl)pyridin-2-yl]piperazin-1-yl}carbonyl)cyclopentanamine]	389
CC(C)[C@]1(C(=O)N2CCN(c3cc(C(F)(F)F)ccn3)CC2)CC[C@@H](NC2CCS(=O)(=O)CC2)C1 [Example 15, N-[(1R-3S)-3-isopropyl-3-({4-[4-(trifluoromethyl)pyridin-2-yl]piperazin-1-yl}carbonyl)cyclopentyl]tetrahydro-2H-thiopyran-4-amine 11-dioxide]	541
CC(C)[C@]1(C(=O)N2CCN(c3cc(C(F)(F)F)ccn3)CC2)CC[C@@H](NCc2cnc3c(c2)NC(=O)CO3)C1 [Example 9, 7-({[(1R,3S)-3-isopropyl-3-({4-[4-(trifluoromethyl)pyridin-2-yl]piperazin-1-yl}carbonyl)cyclopentyl]amino}methyl)-1H-pyrido[23-b][14]oxazin-2(3H)-one]	338
CC1COCC(C)C1N[C@@H]1CC[C@@](C(=O)N2CCN(c3cc(C(F)(F)F)ccn3)CC2)(C(C)C)C1 (stereo partly drawn) [Example 21, N-[(1R,3S)-3-isopropyl-3-({4-[4-(trifluoromethyl)pyridin-2-yl]piperazin-1-yl}carbonyl)cyclopentyl]-35-dimethyltetrahydro-2H-pyran-4-amine]	10.1
CC1OCCC1N[C@@H]1CC[C@@](C(=O)N2CCN(c3cc(C(F)(F)F)ccn3)CC2)(C(C)C)C1 (stereo partly drawn) [Example 20, 2,5-anhydro-1,3,4-trideoxy-3-{[(1R,3S)-3-isopropyl-3-({4-[4-(trifluoromethyl)pyridin-2-yl]piperazin-1-yl}carbonyl)cyclopentyl]amino}pentitol]	80.6
CC(C)[C@]1(C(=O)N2CCN(c3cc(C(F)(F)F)ccn3)CC2)CC[C@@H](NCc2ccc(O)cc2)C1 [Example 27, 4-({[(1R,3S)-3-isopropyl-3-({4-[4-(trifluoromethyl)pyridin-2-yl]piperazin-1-yl}carbonyl)cyclopentyl]amino}methyl)phenol]	470
COc1ccc(CN[C@@H]2CC[C@@](C(=O)N3CCN(c4cc(C(F)(F)F)ccn4)CC3)(C(C)C)C2)c(OC)c1 [Example 10, (1R,3S)-N-(24-dimethoxybenzyl)-3-isopropyl-3-({4-[4-(trifluoromethyl)pyridin-2-yl]piperazin-1-yl}carbonyl)cyclopentanamine]	519
CC(C)[C@]1(C(=O)N2CCN(c3cc(C(F)(F)F)ccn3)CC2)CC[C@@H](NC2CCCC2)C1 [Example 16, (1R,3S)-N-cyclopentyl-3-isopropyl-3-({4-[4-(trifluoromethyl)pyridin-2-yl]piperazin-1-yl}carbonyl)cyclopentanamine]	227
CC(C)[C@]1(C(=O)N2CCN(c3cc(C(F)(F)F)ccn3)CC2)CC[C@@H](NC2CCOC2)C1 (mixture of isomers) [Example 23, N-[(1R-3S)-3-isopropyl-3-({4-[4-(trifluoromethyl)pyridin-2-yl]piperazin-1-yl}carbonyl)cyclopentyl]tetrahydrofuran-3-amine]	157
CC(C)[C@]1(C(=O)N2CCN(c3cc(C(F)(F)F)ccn3)CC2)CC[C@@H](NCc2ccc3c(c2)OCC(=O)N3)C1 [Example 30, 6-({[(1R,3S)-3-isopropyl-3-({4-[4-(trifluoromethyl)pyridin-2-yl]piperazin-1-yl}carbonyl)cyclopentyl]amino}methyl)-2H-14-benzoxazin-3(4H)-one]	364
COc1ccc(CN[C@@H]2CC[C@@](C(=O)N3CCN(c4cc(C(F)(F)F)ccn4)CC3)(C(C)C)C2)cc1OC [Example 25, (1R,3S)-N-(34-dimethoxybenzyl)-3-isopropyl-3-({4-[4-(trifluoromethyl)pyridin-2-yl]piperazin-1-yl}carbonyl)cyclopentanamine]	500
CC(C)[C@]1(C(=O)N2CCN(c3cc(C(F)(F)F)ccn3)CC2)CC[C@@H](NC2CCc3ccccc3C2)C1 (mixture of isomers) [Example 19, N-[(1R,3S)-3-isopropyl-3-({4-[4-(trifluoromethyl)pyridin-2-yl]piperazin-1-yl}carbonyl)cyclopentyl]-1234-tetrahydronaphthalen-2-amine]	138
